Source: patent US6448259B1 (dated 2002)

| SMILES | melting point |
| --- | --- |
| COc1ccc(CNC(=O)c2c[nH]c3c(c2=O)CCC3)cc1 | 240 to 241 °C |
| COc1ccc(NC(=O)c2c[nH]c3c(c2=O)CCCC3)cc1 | 287 to 290 °C |
| Cc1csc(NC(=O)c2c[nH]c3c(c2=O)CCCC3)n1 | 350 to 352 °C |
| O=C(Nc1cccnc1)c1c[nH]c2c(c1=O)CCCC2 | 308 °C (dec.) |
| COc1ccnc(NC(=O)c2c[nH]c3c(c2=O)CCCC3)c1 | 312 °C (dec.) |
| O=C(NCc1ccccc1)c1c[nH]c2c(c1=O)CCCC2 | 257 to 259 °C |
| COc1ccc(CNC(=O)c2c[nH]c3c(c2=O)CCCC3)cc1 | 241 to 244 °C |
| COc1ccccc1CNC(=O)c1c[nH]c2c(c1=O)CCCC2 | 217 to 219 °C |
| COc1cccc(CNC(=O)c2c[nH]c3c(c2=O)CCCC3)c1 | 210 to 212 °C |
| Cc1csc(NC(=O)c2c[nH]c3c(c2=O)CCC3)n1 | 304 to 305 °C |
| COc1ccccc1CNC(=O)c1c[nH]c2c(c1=O)CCC2 | 243 to 244 °C |
| CCCCNC(=O)c1c[nH]c2c(c1=O)CCCCC2 | 138 to 143 °C |
| O=C(Nc1nccs1)c1c[nH]c2c(c1=O)CCCCC2 | 301 °C (dec.) |
| COc1ccc(NC(=O)c2c[nH]c3c(c2=O)CCCCC3)cc1 | 240 to 242 °C |
| O=C(NCc1ccccc1)c1c[nH]c2c(c1=O)CCCCC2 | 224 to 226 °C |
| COc1ccc(CNC(=O)c2c[nH]c3c(c2=O)CCCCC3)cc1 | 203 to 205 °C |
| O=C(NCc1ccc(F)cc1)c1c[nH]c2c(c1=O)CCCCC2 | 219 to 222 °C |
| O=C(NCc1ccc(F)cc1)c1c[nH]c2c(c1=O)CCCC2 | 278 to 280 °C |
| O=C(NCc1cccc(Cl)c1)c1c[nH]c2c(c1=O)CCCC2 | 247 to 249 °C |
| O=C(NCc1ccc(Cl)cc1)c1c[nH]c2c(c1=O)CCCC2 | 283 to 285 °C |
| CCOc1ccc(CNC(=O)c2c[nH]c3c(c2=O)CCCC3)cc1 | 241 to 243 °C |
| Cc1ccc(CNC(=O)c2c[nH]c3c(c2=O)CCCC3)cc1 | 270 to 273 °C |
| Cc1cccc(CNC(=O)c2c[nH]c3c(c2=O)CCCC3)c1 | 242 to 245 °C |
| CCOc1ccc(CNC(=O)c2c[nH]c3c(c2=O)CCCC3)c(F)c1 | 178 to 181 °C |
| CC(C)Oc1ccc(CNC(=O)c2c[nH]c3c(c2=O)CCCC3)c(F)c1 | 197 to 200 °C |
| O=C(NCc1cccs1)c1c[nH]c2c(c1=O)CCCC2 | 245 to 248 °C |
| O=C(Nc1ccc(OCCO)cc1)c1c[nH]c2c(c1=O)CCC2 | 220 to 222 °C |
| O=C(NCc1ccc2c(c1)OCO2)c1c[nH]c2c(c1=O)CCCC2 | 263 to 265 °C |
| O=C(Nc1nccs1)c1c[nH]c2c(c1=O)CCCC2 | 260 °C (dec.) |

Continued, values first:

| melting point | SMILES |
| --- | --- |
| 324 to 326 °C | O=C(Nc1ccc(F)cc1)c1c[nH]c2c(c1=O)CCCC2 |
| 275 to 280 °C | COc1cccc(NC(=O)c2c[nH]c3c(c2=O)CCCC3)c1 |
| 133 to 136 °C | O=C(NCc1cccc(O)c1)c1c[nH]c2c(c1=O)CCCC2 |
| 306 °C (dec.) | O=C(Nc1cccs1)c1c[nH]c2c(c1=O)CCCC2 |
| 339 to 341 °C | O=C(Nc1ccccc1Cl)c1c[nH]c2c(c1=O)CCCC2 |
| 321 to 324 °C | O=C(Nc1ccsc1)c1c[nH]c2c(c1=O)CCCC2 |
| 278 to 280 °C | O=C(Nc1c(F)cccc1F)c1c[nH]c2c(c1=O)CCCC2 |
| 206 to 208 °C | O=C(NCc1ccccc1F)c1c[nH]c2c(c1=O)CCCC2 |
| 294 to 295 °C | O=C(Nc1ccccn1)c1c[nH]c2c(c1=O)CCC2 |
| 305 °C (dec.) | O=C(Nc1nccs1)c1c[nH]c2c(c1=O)CCC2 |
| 340 °C (dec.) | O=C(Nc1cccc(F)c1)c1c[nH]c2c(c1=O)CCC2 |
| 330 °C (dec.) | O=C(Nc1ccccc1F)c1c[nH]c2c(c1=O)CCC2 |
| 328 °C (dec.) | O=C(Nc1ccc(F)cc1F)c1c[nH]c2c(c1=O)CCC2 |
| 297 °C (dec.) | O=C(Nc1c(F)cccc1F)c1c[nH]c2c(c1=O)CCC2 |
| 149 to 150 °C | O=C(NCc1ccccc1)c1c[nH]c2c(c1=O)CCC2 |
| 204 to 205 °C | COc1cccc(CNC(=O)c2c[nH]c3c(c2=O)CCC3)c1 |
| 294 to 295 °C | O=C(NCc1c(F)cccc1F)c1c[nH]c2c(c1=O)CCC2 |
| 210 °C (dec.) | O=C(Nc1cccs1)c1c[nH]c2c(c1=O)CCC2 |
| 295 to 296 °C | O=C(Nc1ccccc1)c1c[nH]c2c(c1=O)CCC2 |
| 267 to 270 °C | O=C(NCc1cccc(F)c1)c1c[nH]c2c(c1=O)CCCC2 |
| 257 to 259 °C | COc1ccc(CNC(=O)c2c[nH]c3c(c2=O)CCCC3)c(F)c1 |
| 241 to 244 °C | O=C(Nc1ccccc1F)c1c[nH]c2c(c1=O)CCCC2 |
| 330 to 332 °C | COc1ccc(NC(=O)c2c[nH]c3c(c2=O)CCC3)cc1 |
| 320 °C (dec.) | COc1cccc(NC(=O)c2c[nH]c3c(c2=O)CCC3)c1 |
| 217 to 219 °C | CCOc1ccc(CNC(=O)c2c[nH]c3c(c2=O)CCC3)c(F)c1 |
| 214 °C (dec.) | CC(C)Oc1ccc(CNC(=O)c2c[nH]c3c(c2=O)CCC3)c(F)c1 |
| 209 to 211 °C | CCCOc1ccc(CNC(=O)c2c[nH]c3c(c2=O)CCC3)c(F)c1 |
| 259 to 261 °C | O=C(NCc1ccccc1F)c1c[nH]c2c(c1=O)CCC2 |
| 319 to 320 °C | O=C(Nc1cccc(F)c1)c1c[nH]c2c(c1=O)CCCC2 |
| 299 to 300 °C | O=C(Nc1ccccc1)c1c[nH]c2c(c1=O)CCCC2 |
